{"source": "paper PMC5684143", "about": "“New melanocortin-like peptide of E. coli can suppress inflammation via the mammalian melanocortin-1 receptor (MC1R): possible endocrine-like function for microbes of the gut” (NPJ Biofilms and Microbiomes, 2017)", "tested_on": "Balb/C mice", "assay": "Cecal ligation and puncture (CLP) polymicrobial sepsis, survival (protocol A)", "type": "in vivo", "method": "In vivo studies were performed in accordance with National Institutes of Health guidelines and with the approval of the North Shore-Long Island Jewish Health System’s Institutional Animal Care and Use Committee (IACUC). In mice, polymicrobial sepsis was induced by surgical ligation and perforation of the cecum, a widely used technique known as CLP. Briefly, male BALB/c mice (7–8 weeks old, 20–25 g) were anesthetized with a mixture of ketamine (100 mg/kg) and xylazine (8 mg/kg) intramuscularly, and a 15 mm midline incision was made to expose the cecum. After ligation of the cecum with a 6.0 silk suture below the junction of the ileo–cecal valve, the ligated cecal stump was perforated once with a 22-gauge needle. […] Survival was monitored twice daily for 2 weeks, at which time survivors were killed (CO2 asphyxia). […] Survival was monitored twice daily after surgery. […]\nKaplan–Meier analysis was used to determine statistical significance of the differences in survival of mice. p ≦ 0.05 was considered significant. Values in the figures were expressed as mean(±)S.E.M. of two or three independent experiments, where each experimental point was derived from duplicates or triplicates. […]\nFig. 6 MECO-1 rescues mice from lethal sepsis. a Endotoxin. […] Survival was monitored daily for 2 weeks. […] Animals were monitored for survival for 14 days. […]", "data": [{"substance": "alpha-melanocyte-stimulating hormone [alpha-MSH]", "values": [{"measurement": "survival at day 14 after CLP", "setting": "5 mg/kg (high dose) i.p. twice daily, six doses starting 24 h post-surgery, n = 10, saline 15%", "result": "around 50%"}, {"measurement": "overall survival after CLP polymicrobial sepsis", "setting": "three experiments pooled, untreated 23% (9 of 39), alpha-MSH 15 of 22, MECO-1 42 of 64", "result": 68, "unit": "%"}]}]}
